The results in this text go back to patent publication US12383533B2 (Frost Biologic, Inc., priority 2014, dated 2025).

The structures appear in SMILES notation.

Experiment [1] concerns porcine neuronal tubulin. Kind of experiment: Tubulin Polymerization Assay. It is filed as biochemical. The settings on record: porcine tubulin 2.0 mg/ml, 37° C., fluorescence; read-out: IC50 (tubulin polymerization, from Vmax). The source says: Tubulin Polymerization Assay
The Tubulin Polymerization Assay uses porcine neuronal tubulin and measurements are based on fluorescence enhancement due to the incorporation of a fluorescent reporter into microtubules as polymerization occurs. The assay generates a polymerization curve representing the three phases of microtubule formation (nucleation, growth and equilibrium). IC50 values for tested compounds can be generated from the observed polymerization curves.
Procedure: All compounds dilutions (in DMSO) were prepared prior to the following steps. A Molecular Devices M2 plate reader was set to 37° C. Once the internal temperature of the plate reader reached 37° C. a 96 well plate (Corning Costar, at. #3686) was placed in the fluorimeter and allowed to warm to 37° C. for 30 minutes. A total of 10 mg of porcine tubulin was resuspended in […] of Polymerization Buffer [Buffer 1 (80 mM PIPES pH 6.9, 2.0 mM MgCl2, 0.5 mM EGTA, 1.0 mM GTP and 10 μM fluorescent reporter) supplemented with 20% glycerol] to generate a 2.0 mg/ml tubulin stock and this was kept on ice. The 50× compound stocks in 100% DMSO were spotted 1 μl/well in duplicate into the wells of the 96-well plate at 37° C. and allowed to re-warm for 5 minutes at 37° C. During this incubation the 2.0 mg/ml tubulin stock was placed in a disposable plastic trough and allowed to warm briefly at room temperature. To initiate the reaction, 50 μl/well of 2.0 mg/ml tubulin in Polymerization Buffer was added to each well using a multi-channel pipettor and the fluorescence measurements were started immediately.
The maximal velocity (Vmax) of tubulin polymerization was determined using linear regression of the averaged fluorescence data at each time point using GraphPad Prism 5.0 software. The Vmax determinations for each compound at each concentration were then normalized to reactions that contained DMSO (2% final concentration) but no test compounds. This converted the data to % Activity, which refers to the percent of the Vmax of an uninhibited reaction. The concentration response curves were then plotted as the % Activity versus the Log 10 of the compound concentration in micromolar and fit by non-linear regression to a 4-parameter sigmoidal dose-response equation using GraphPad Prism 5.0 software to determine the IC50 for each compound.

In experiment [2] the test system is A2780 cells. Kind of experiment: Cell Viability Assay (ATPlite 1step), A2780. It counts as cell-based. The settings on record: Homo sapiens, 72 hours; for percent inhibition of cell viability at 4 µM: A2780, 4 uM compound, read-out: Cell Viability % inhibition A2780 (4 uM Cpd); for percent inhibition of cell viability at 20 µM: A2780, 20 uM compound, read-out: Cell Viability % inhibition A2780 (20 uM Cpd). Put shortly:
(§1)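 Cells seeded at 1000/well, grown 24 h at 37 °C/5% CO2, then exposed to compounds (DMSO stock diluted in media) for 72 h; viability read by ATPlite 1step luminescence. A2780 and PC3 in RPMI, MCF-7 in K-12F, each with 10% FBS.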
On the technique in general: In ATP-based viability assays light output follows the ATP content of the culture.

Experiment [3] relates to PC3 cells. Put plainly: Cell Viability Assay (ATPlite 1step), PC3. It is filed as cell-based. Conditions: Homo sapiens, PC-3, 72 hours; for percent inhibition of cell viability at 4 µM: PC3, 4 uM compound, read-out: Cell Viability % inhibition PC3 (4 uM Cpd); for percent inhibition of cell viability at 20 µM: PC3, 20 uM compound, read-out: Cell Viability % inhibition PC3 (20 uM Cpd). Put shortly: as §1

In experiment [4] the test system is MCF-7 cells. Kind of experiment: Cell Viability Assay (ATPlite 1step), MCF-7. It is filed as cell-based. The settings on record: Homo sapiens, MCF7, 72 hours; for percent inhibition of cell viability at 4 µM: MCF-7, 4 uM compound, read-out: Cell Viability % inhibition MCF-7 (4 uM Cpd); for percent inhibition of cell viability at 20 µM: MCF-7, 20 uM compound, read-out: Cell Viability % inhibition MCF-7 (20 uM Cpd). How it is done:
Cell Viability Assay Protocol
Cells were trypsinized, counted, and re-seeded into a 384-well tissue culture plate at 1000 cells per well in […] media. Cells were incubated at 37° C. in an atmosphere of 5% CO2 for 24 hours. Experimental compounds, initially dissolved in DMSO and diluted further in media were added to the wells and incubated for 72 hours. Cell viability was measured using the ATPlite 1step Luminescence Detection Assay system (Perkin Elmer) as described in the Assay kit instructions.
Cell Culture Lines and Media: (1) A2780 cells were cultured in RPMI media with 10% FBS and 1% antibiotics. Cells were typically split every 3-5 days at a 1:10 dilution; (2) PC3 cells were cultured in RPMI media with 10% FBS and 1% antibiotics. Cells were typically split every 3-5 days at a 1:4 dilution; (3) MCF-7 cells were grown in K-12F media with 10% FBS and 1% antibiotics. Cells were typically split every 3-5 days at a 1:10 dilution.

Regarding `Cc1ncc(C(=O)Nc2ccc(-c3cccc(C4CC4)c3)cn2)cn1` [Compound 23, N-[5-(3-cyclopropylphenyl)pyridin-2-yl]-2-methylpyrimidine-5-carboxamide], in experiment [1], the IC50 amounted to 890 nM. In experiment [2], the percent inhibition of cell viability at 4 µM is 71.5% and the percent inhibition of cell viability at 20 µM was found to be 80.3%. For the same compound, in experiment [3], the percent inhibition of cell viability at 4 µM was found to be 53.7% and the percent inhibition of cell viability at 20 µM came out at 66.2%.
On to `Cc1ncc(C(=O)Nc2ncc(-c3cccc(C4CC4)c3)cc2F)cn1` [Compound 67, N-[5-(3-cyclopropylphenyl)-3-fluoropyridin-2-yl]-2-methylpyrimidine-5-carboxamide], for which the IC50 in experiment [1] was found to be 2420 nM. Moreover, the percent inhibition of cell viability at 4 µM in experiment [2] is 87.1%; in experiment [4], 60%; in experiment [3] it was 56%. Moreover, the values for the percent inhibition of cell viability at 20 µM in experiment [2], in experiment [4] and in experiment [3] were 87.9%, 63.7% and 61.6%, respectively.
With `O=C(Nc1ccc(-c2cccc(C3CC3)c2)cn1)c1cncnc1` [Compound 16, N-[5-(3-cyclopropylphenyl)pyridin-2-yl]pyrimidine-5-carboxamide], the IC50 in experiment [1] amounted to 480 nM. In addition, the percent inhibition of cell viability at 4 µM in experiment [2] stood at 90.4%; in experiment [4], 70.2%; in experiment [3] it was 73.7%. Moreover, the percent inhibition of cell viability at 20 µM in experiment [2] came out at 92.1%; in experiment [4], 78.4%; in experiment [3] it was 77.7%.
Regarding `CC[C@]1(O)C[C@H]2CN(CCc3c([nH]c4ccccc34)[C@@](C(=O)OC)(c3cc4c(cc3OC)N(C=O)[C@H]3[C@@](O)(C(=O)OC)[C@H](OC(C)=O)[C@]5(CC)C=CCN6CC[C@]43[C@@H]65)C2)C1` [Vincristine, reference compound], in experiment [1], the half-inhibitory concentration (IC50) was 680 nM.
Turning to `Cc1ncc(C(=O)Nc2ccc(-c3cccc(S(=O)(=O)C4CC4)c3)cn2)cn1` [Compound 63, N-{5-[3-(cyclopropylsulfonyl)phenyl]pyridin-2-yl}-2-methylpyrimidine-5-carboxamide], the IC50 in experiment [1] was found to be 240 nM. Also, the results for the percent inhibition of cell viability at 4 µM in experiment [2], in experiment [4] and in experiment [3] were 85.6%, 59.1% and 61.4%, respectively. The percent inhibition of cell viability at 20 µM was 88% in experiment [2], 65.1% in experiment [4] and 67.6% in experiment [3].
For `Cc1ncc(C(=O)Nc2ncc(-c3ccsc3)cc2F)cn1` [Compound 69, N-[3-fluoro-5-(thiophen-3-yl)pyridin-2-yl]-2-methylpyrimidine-5-carboxamide], the IC50 in experiment [1] was 2350 nM. Also, the values for the percent inhibition of cell viability at 4 µM in experiment [2], in experiment [4] and in experiment [3] were 84.7%, 56.2% and 57.6%, respectively. The values for the percent inhibition of cell viability at 20 µM in experiment [2], in experiment [4] and in experiment [3] were 90.1%, 61.3% and 64.5%, respectively.
Take `Cc1ccc(C(=O)Nc2ccc(-c3cccc(C4COC4)c3)cn2)cn1` [Compound 44, 6-methyl-N-{5-[3-(oxetan-3-yl)phenyl]pyridin-2-yl}pyridine-3-carboxamide]: the IC50 in experiment [1] is 300 nM. Further, the results for the percent inhibition of cell viability at 4 µM in experiment [2] and in experiment [3] were 86.5% and 81.8%, respectively. The values for the percent inhibition of cell viability at 20 µM in experiment [2] and in experiment [3] were 86.1% and 84.6%, respectively.
In the same order, the values of `Cc1ncc(C(=O)Nc2ccc(-c3cccc(OC4CC4)c3)cn2)cn1` [Compound 27, N-{5-[3-(cyclopropyloxy)phenyl]pyridin-2-yl}-2-methylpyrimidine-5-carboxamide] are 680 nM, 77.3%, 58.3%, 77.4% and 69.6%.
In the case of `CC[C@]1(O)C[C@@H]2CN(CCc3c([nH]c4ccccc34)[C@@](C(=O)OC)(c3cc4c(cc3OC)N(C)[C@H]3[C@@](O)(C(=O)OC)[C@H](OC(C)=O)[C@]5(CC)C=CCN6CC[C@]43[C@@H]65)C2)C1` [Vinblastine, reference compound], the IC50 in experiment [1] is 200 nM.
For the compound `Cc1ncc(C(=O)Nc2ncc(-c3cccc(OC4CC4)c3)cc2F)cn1` [Compound 66, N-{5-[3-(cyclopropyloxy)phenyl]-3-fluoropyridin-2-yl}-2-methylpyrimidine-5-carboxamide], the IC50 in experiment [1] worked out at 3840 nM. Besides, the values for the percent inhibition of cell viability at 4 µM in experiment [2], in experiment [4] and in experiment [3] were 89%, 75% and 66%, respectively. The percent inhibition of cell viability at 20 µM in experiment [2] amounted to 88.4%; in experiment [4] it was 76%; in experiment [3] it was 70.6%.
As to `Cc1ncc(C(=O)Nc2ccc(-c3cccc(S(=O)(=O)C4CC4)c3)c(C)n2)cn1` [Compound 64, N-{5-[3-(cyclopropylsulfonyl)phenyl]-6-methylpyridin-2-yl}-2-methylpyrimidine-5-carboxamide], the IC50 in experiment [1] is 120 nM. Also, the percent inhibition of cell viability at 4 µM in experiment [2] came to 80%; in experiment [4], 73.5%; in experiment [3], 59.4%. The percent inhibition of cell viability at 20 µM in experiment [2] is 81.5%; in experiment [4], 74.5%; in experiment [3], 62.7%.
Turning to `Cc1ncc(C(=O)Nc2ccc(-c3ccsc3)cn2)cn1` [Compound 61, 2-methyl-N-[5-(thiophen-3-yl)pyridin-2-yl]pyrimidine-5-carboxamide], the IC50 in experiment [1] stood at 260 nM. Further, the percent inhibition of cell viability at 4 µM was 86.5% in experiment [2], 73.3% in experiment [4] and 58.3% in experiment [3]. Also, the percent inhibition of cell viability at 20 µM came to 89.7% in experiment [2], 72.9% in experiment [4] and 70.6% in experiment [3].
For the compound `O=C(Nc1ccc(-c2ccccc2)cn1)c1cncnc1` [Compound 1], the IC50 in experiment [1] amounted to 1400 nM. The percent inhibition of cell viability at 4 µM is 84.2% in experiment [2], 46.1% in experiment [4] and 59.1% in experiment [3]. For the same compound, the percent inhibition of cell viability at 20 µM worked out at 93.6% in experiment [2], 68.4% in experiment [4] and 72.2% in experiment [3].
Regarding `Cc1ncc(C(=O)Nc2ccc(-c3cccc(NC4CC4)c3)cn2)cn1` [Compound 31, N-{5-[3-(cyclopropylamino)phenyl]pyridin-2-yl}-2-methylpyrimidine-5-carboxamide], the IC50 in experiment [1] is 320 nM. In experiment [2], the percent inhibition of cell viability at 4 µM is 70.9% and the percent inhibition of cell viability at 20 µM stood at 71.2%. Moreover, in experiment [3], the percent inhibition of cell viability at 4 µM came out at 51.8% and the percent inhibition of cell viability at 20 µM amounted to 43.7%.

One may read the IC50 as the concentration needed to halve the response being measured.
